Active and inactive are the calls of the source. The rule behind the calls is not given here.
Tests used:
[1] = biological target: T1, Trypanothione reductase (Leishmania infantum, UniProt A4HSF7); test: Inhibition of recombinant His-tagged Leishmania infantum TryR oxidoreductase activity expressed in Escherichia coli BL21 (DE3) using TS2 and NADPH as substrate by DTNB-reagent based spectrophotometric method
[2] = Selectivity index, ratio of LC50 for cytotoxicity against human THP-1 cells to EC50 of leishmanicidal activity against axenic amastigote stage of Leishmania infantum MCAN/ES/89/IPZ229/1/89
[3] = Cytotoxicity against human THP-1 cells assessed as reduction in cell proliferation incubated for 24 hrs by propidium iodide staining based flow cytometry
[4] = tested on: Leishmania infantum; test: Leishmanicidal activity against axenic amastigote stage of Leishmania infantum MCAN/ES/89/IPZ229/1/89 assessed as reduction of proliferation of amastigotes incubated for 24 hrs by propidium iodide staining based flow cytometry; assay type: functional, organism-based; conditions: MCAN/ES/89/IPZ229/1/89, 24 h
[5] = tested on: Leishmania infantum; test: Leishmanicidal activity against GFP-expressing axenic amastigote stage of Leishmania infantum MCAN/ES/89/IPZ229/1/89 infected in human THP-1 macrophage cells assessed as reduction in intracellular amastigotes incubated for 48 hrs by propidium iodide staining based flow cytometry; assay type: functional, organism-based; conditions: MCAN/ES/89/IPZ229/1/89, THP-1, 48 h
[6] = biological target: Trypanothione reductase (Leishmania infantum) (UniProt A4HSF7); test: Inhibition of recombinant His-tagged Leishmania infantum TryR expressed in Escherichia coli BL21 (DE3) assessed as TryR mediated cytochrome c reduction in presence of NADPH at 10 uM by spectrophotometric method
Chain of Trypanothione reductase (Leishmania infantum) (A4HSF7 as listed by the source): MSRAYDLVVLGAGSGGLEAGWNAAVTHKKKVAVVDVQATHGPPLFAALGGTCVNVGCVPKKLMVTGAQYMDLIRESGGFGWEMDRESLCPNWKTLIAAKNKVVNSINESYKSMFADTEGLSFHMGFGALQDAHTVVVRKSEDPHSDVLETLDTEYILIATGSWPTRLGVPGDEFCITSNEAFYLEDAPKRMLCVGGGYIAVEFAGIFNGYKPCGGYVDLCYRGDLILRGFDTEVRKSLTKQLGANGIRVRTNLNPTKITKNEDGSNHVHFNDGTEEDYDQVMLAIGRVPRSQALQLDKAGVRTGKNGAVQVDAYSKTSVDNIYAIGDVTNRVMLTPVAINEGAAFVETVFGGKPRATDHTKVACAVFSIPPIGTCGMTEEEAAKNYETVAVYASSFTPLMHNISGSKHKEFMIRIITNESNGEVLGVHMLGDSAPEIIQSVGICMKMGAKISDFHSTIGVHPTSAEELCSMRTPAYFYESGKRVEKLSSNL

[7] = biological target: Trypanothione reductase (Leishmania infantum) (UniProt A4HSF7); test: Uncompetitive type inhibition of recombinant His-tagged Leishmania infantum TryR oxidoreductase activity expressed in Escherichia coli BL21 (DE3) assessed as inhibition constant using TS2 and varying concentration of NADPH as substrate by double reciprocal Lineweaver-Burk plot analysis
[8] = biological target: T1, Trypanothione reductase; test: Non competitive type inhibition of recombinant His-tagged Leishmania infantum TryR oxidoreductase activity expressed in Escherichia coli BL21 (DE3) assessed as inhibition constant using NADPH and varying concentration of TS2 as substrate by double reciprocal Lineweaver-Burk plot analysis

T1 sequence (A4HSF7 whole entry): as the sequence (A4HSF7 as listed by the source) above

Row | Structure (SMILES) | IC50 [1] [nM] | selectivity ratio [2] | CC50 at 24 h [3] [nM] | EC50 [4] [nM] | EC50 [5] [nM] | inhibition [6] | alphaKi [7] [µM] | Ki [8] [nM]
1 | CCN(CC)CCCC(C)Nc1c2ccc(Cl)cc2nc2ccc(OC)cc12 (stereo not drawn) [QUINACRINE] | 13500 | – | – | – | – | – | – | –
2 | CCc1cc2c3cccn3c3cc(Cl)ccc3[n+]2nc1CC | 25700 | 304 | 24300 | 80 | 3100 | – | – | –
3 | CCc1cc2c3ccc(Br)n3c3cc(Cl)ccc3[n+]2nc1CC | 2980 | 85.6 | 6850 | 80 | 1230 | Active | 1.37 | 2830
4 | CCCCCCCCCCCCCCCCOP(=O)([O-])OCC[N+](C)(C)C [MILTEFOSINE] | – | 14.8 | 7690 | 520 | 550 | – | – | –

From ChEMBL document CHEMBL5143518, “Pyridazino-pyrrolo-quinoxalinium salts as highly potent and selective leishmanicidal agents targeting trypanothione reductase” (Eur J Med Chem, 2022)
